Assay results as given in patent US9505794B2, “Ruthenium (II) complexes, preparation and uses thereof” (priority 2014, dated 2016).

Tests used:
PFA fixed MCF-7 cells = experiment: CLSM imaging of fixed cells, co-staining with DAPI; format: cell-based; settings: fixed MCF-7, excitation 442 nm, emission 620 nm
Procedure: In another embodiment, co-staining experiments were performed with DAPI, a commonly used commercial nuclear staining agent.
To ensure that DAPI had no influence in internalization of the complexes 1 and 2, identical experiments with fixed MCF-7 cells in absence of DAPI were performed (FIG. 22 c) and a distinct red emission were observed from the nucleus. Luminescence intensity profile plots confirmed that the emission was actually from the nucleus.
MCF-7 and HEK293T cells were cultured in DMEM respectively supplemented with 10% FBS and penicillin/streptomycin. Cell lines were maintained at 37° C. in an atmosphere of 5% CO2 and routinely sub-cultured. For CLSM, cell cultures were grown on 6 well plate with coverslips, after 24 hrs of incubation the cells were treated with solutions of 1 or 2 (20 μM,) in serum containing media and incubated for 2 h. After incubation media was removed and cells were washed with 1×PBS buffer and fixed them using paraformaldehyde and stained for confocal microscopy. Nuclear staining was performed by using DAPI. Olympus Fluoview was used to observe the compound staining Compound was excited at 443 nm and emission was detected at 620 nm wavelength.
DAPI was excited by using a 405 nm diode laser and emission detected with a 420-480 nm long-pass band-filter. (FIG. 14, 15, 16, 17)

[1] = Photostability under continuous irradiation by confocal microscopy; format: physicochemical; settings: for reduction of fluorescence intensity upon irradiation: fixed MCF-7, exposure at 442 nm for 300 sec
Description: In yet another embodiment, photostability of these two complexes 1 & 2 compared with that for DAPI dye by using confocal microscopy.

MCF-7 cell line = experiment: Cellular uptake and quantification of Ru by MP-AES; format: cell-based; settings: MCF-7, 50 μM, 24 h, 37° C
Procedure: Cellular accumulation studies for complexes 1, 2, and 3 were conducted on the MCF-7 cell line. Briefly, 2.5×10^5-1×10^6 cells were seeded on a petridish; the metal complexes were then added to give final concentrations of 50 μM and allowed a further 24 h of drug exposure at 37° C. After this time, cells were treated with trypsin, counted using haemocytometer, and cells collected were digested overnight in concentrated nitric acid (73%) at 60° C.; Samples were made up to exactly 10 mL using deionized water and the amount of ruthenium taken up by the cells was estimated by MP-AES (Microwave Plasma Atomic Emission Spectroscopy), using an Agilent Technologies instrument (Model No: 4100 MP-AES). The solvent used for all MP-AES experiments was double deionized water (DDW). The concentrations used for the calibration curve were in all cases 0, 5, 7.5, 10 ppm. The isotope detected was ^101Ru; readings were made in duplicate (N2 gas mode).

live MCF-7 cells = experiment: CLSM imaging of live cells, co-staining with ER-Tracker Green; format: cell-based; settings: live MCF-7, 50 μM, 37° C
Procedure: In the light of the negligible toxicity towards MCF-7 cells, the application of the above complexes as potential as imaging agents was explored in live MCF-7 cells by incubating the cells separately with 50 μM of 1, 2, and 3 at 37° C.

[2] = Fluorescence quantum yield and luminescence lifetime (TCSPC) in water; format: physicochemical; settings: pure aqueous medium; for τ (luminescence lifetime): excitation 443 nm; for Φf (fluorescence quantum yield): reference Ru(bpy)3Cl2
Description: UV-Vis spectra were obtained by using a Cary 500 scan UV-Vis-NIR spectrometer. Room temperature emission spectrum was obtained using an Edinburgh instrument Xe-900 spectro fluorometer. The fluorescence quantum yields, Φf were estimated by using equation 1 in water medium using the integrated emission intensity of Ru(bpy)3Cl2 (Φf=0.042 in H2O at RT) as a reference. (FIG. 20)
Luminescent lifetimes were obtained using a Horiba TCSPC (Time Correlated Single Photon Counting) system exciting at 443 nm. 10,000 counts were collected for each lifetime measurement and all measurements were performed in triplicate using DAS software to confirm results. The calculation of the luminescent lifetimes was performed by fitting an exponential decay function to each decay plot to extract the lifetime information using DAS6 fluorescence decay analysis software (FIG. 2).

[3] = Partition coefficient (log P), shake-flask method, n-octanol/water; settings: for LogP: values of Table 2; for log P: values of text and unnumbered table
Procedure: Partition coefficients (log P) for these three complexes were evaluated by shake-flask method and these were correlated to the lipophilicity of respective complexes.
n-Octanol saturated water and water saturated octanol was obtained using Millipore water stirred with n-octanol for 24 h before the two layers were separated by centrifugation (3000 rpm, 5 min). The chloride salts of complex 1 and 2 were dissolved in n-octanol saturated water giving concentrations ranging from 0.5 to 3.0 mmol. This was then mixed with water saturated n-octanol in the ratio of 1:1 (v/v). Resulting solvent mixtures were vertexed for 30 min at room temperature, and then were subjected to centrifugation (3000 rpm, 5 min) to get two distinct separate layers. Samples from each layer were obtained using a fine-gauge needle and the absorbance of respective complex in each phase determined using UV-Vis spectroscopy.

calf-thymus DNA (CT-DNA) = experiment: Isothermal titration calorimetry (ITC) binding to CT-DNA; settings: for ΔG / ΔH / −TΔS: Tris-HCl buffer pH=7.4, 25° C; for N [bp]: one set of site binding model
Procedure: Relative binding affinity of complexes 1, 2, and 3 towards calf-thymus DNA (CT-DNA) were evaluated using isothermal titration calorimetry (ITC) (FIG. 20). Association constants and thermodynamic parameters (Table 4) clearly reveal that the binding affinities for complexes 1 and 2
ITC experiments were performed with the Microcal iTC200. CT-DNA (0.1 mmol) and complexes 1 (5 mmol), 2 (5 mmol) and 3 (5 mmol) were used for these experiments. All titrations were conducted in Tris-HCl buffer (5 mmol Tris and 25 mmol NaCl), pH=7.4 at 25° C. In each titration CT-DNA was loaded into the cell and 1 or 2 or 3 were taken into the syringe. Aliquot of 2 μL of compounds were injected into the cell containing DNA. In each experiment, the raw isotherms were corrected for heat of dilution by subtracting the isotherms representing the compounds injected into the Tris-HCl buffer. The resulting isotherms were fitted with the one set of site binding model provided with Microcal iTC200. (Refer FIG. 21)

[4] = system: nuclear DNA of fixed MCF-7 cells; experiment: DNase I / RNase A digest experiments (CLSM); format: cell-based; settings: fixed MCF-7 cells pre-treated with DNase I
Procedure: Further, in order to check the preferential binding of these two reagents to nuclear DNA, deoxyribonuclease (DNase I) and ribonuclease (RNase A) digest experiments were carried out. DNase I is an enzyme that catalyzes the hydrolytic cleavage of phosphodiester linkages in the DNA and RNase A is a type of nuclease that catalyzes the degradation of RNA into smaller components. DAPI was used for control experiments.

## {bis-(2,2′-bpy)-(5-fluoro-1-((4′-methyl-[2,2′-bipyridin]-4-yl)methyl)pyrimidine-2,4(1H,3H)-dione)}ruthenium(II) dichloride [Complex 1]
PFA fixed MCF-7 cells
  staining of fixed cells: as efficient as DAPI in staining the nucleus
[1]
  reduction of fluorescence intensity upon irradiation: ~20%
MCF-7 cell line
  Ru accumulation: 1.5 ppm/10^6 cells
Live MCF-7 cells
  intracellular localisation of emission in live cells: exactly superimposed with those for ER-Tracker™ Green
Water solubility
  water solubility: highly water soluble
[2]
  τ (luminescence lifetime): 336 ns
  Φf (fluorescence quantum yield): 0.048
[3]
  LogP: −0.99 ± 0.05
  log P: −0.85
calf-thymus DNA (CT-DNA)
  ΔG: −6.68 ± 0.41 Kcal/M^−1
  ΔH: −35.5 ± 0.41 Kcal/M^−1
  N [bp]: 0.61 ± 0.0 bp
[4]
  intracellular fluorescence intensity from the nucleus after DNase I pre-treatment: significantly reduced

## Cc1ccnc(-c2cc(C)ccn2)c1.F[P-](F)(F)(F)(F)F.F[P-](F)(F)(F)(F)F.[Ru+2].c1ccc(-c2ccccn2)nc1.c1ccc(-c2ccccn2)nc1 [Complex 3, [Ru(bpy)2(L3)]2+, reference compound]
PFA fixed MCF-7 cells
  staining of fixed cells: non-specific staining of cellular compartments
MCF-7 cell line
  Ru accumulation: 0.8 ppm/10^6 cells
Live MCF-7 cells
  extent of cellular uptake: less as compared to the complexes 1 and 2
  intracellular localisation of emission in live cells: did not show any such specificity towards lipid dense regions
[2]
  τ (luminescence lifetime): 321 ns
  Φf (fluorescence quantum yield): 0.05
[3]
  log P: −1.1
calf-thymus DNA (CT-DNA)
  ΔG: −4.52 ± 0.25 Kcal/M^−1
  ΔH: 0.51 ± 0.25 Kcal/M^−1
  −TΔS: 5.03 Kcal/M^−1l
  N [bp]: 0.354 ± 0.14 bp

## {bis-(2,2′-bpy)-(1-((4′-methyl-[2,2′-bipyridin]-4-yl)methyl)pyrimidine-2,4(1H,3H)-dione)}ruthenium(II) dichloride [Complex 2]
PFA fixed MCF-7 cells
  staining of fixed cells: as efficient as DAPI in staining the nucleus
[1]
  reduction of fluorescence intensity upon irradiation: ~20%
MCF-7 cell line
  Ru accumulation: 2.3 ppm/10^6 cells
Live MCF-7 cells
  intracellular localisation of emission in live cells: exactly superimposed with those for ER-Tracker™ Green
Water solubility
  water solubility: highly water soluble
[2]
  τ (luminescence lifetime): 323 ns
  Φf (fluorescence quantum yield): 0.050
[3]
  LogP: −1.59 ± 0.09
calf-thymus DNA (CT-DNA)
  ΔG: −6.00 ± 0.02 Kcal/M^−1
  ΔH: 1.47 ± 0.02 Kcal/M^−1
  −TΔS: 7.47 Kcal/M^−1l
  N [bp]: 0.98 ± 0.01 bp
[4]
  intracellular fluorescence intensity from the nucleus after DNase I pre-treatment: significantly reduced

## N=C(N)c1ccc(-c2cc3ccc(C(=N)N)cc3[nH]2)cc1 [DAPI, 4′,6-diamidino-2-phenylindole, reference compound]
[1]; fixed MCF-7, at 359 nm for 300 sec
  fluorescence intensity upon continuous irradiation: drastically reduced
